This is an account of results in PMC3084839, “Origin of Secretin Receptor Precedes the Advent of Tetrapoda: Evidence on the Separated Origins of Secretin and Orexin” (PLoS ONE, 2011).

As a reminder, the EC50 is the concentration needed to bring the measured effect to its halfway point.

Ends that are not written are not given here.

Experiment [1] has as its system R. rugulosa pancreatic ductal cells. Put plainly: cAMP production in primary culture of R. rugulosa pancreatic ductal cells. In kind it is cell-based, Rana rugulosa. As to conditions: positive control. As for the experimental part: Adult male R. rugulosa was sacrificed by cervical decapitation. The freshly excised pancreas was removed and washed in Ringer solution (in mM, 85 NaCl, 4 KCl, 17.5 NaHCO3, 0.8 KH2PO4, 2 glucose, 1.5 CaCl2 and 0.8 MgCl2, pH 7.6). The excised pancreas was then minced into approximately 1 mm^3 pieces and digested at room temperature for 1 hr in the dissociation medium (Ringer solution supplemented with 0.2 mg/ml soy beans trypsin inhibitor (Sigma), 2 mg/ml BSA (Roche), 400 U/ml hyaluronidase (Sigma) and 50 U/ml collagenase (Sigma)). The tissue suspension was then washed with Ringer solution and small clusters of dissociated cells were filtered with the use of a 100-µm cell strainer (BD Falcon, US). Filtrate containing the undigested tissue, including the pancreatic ducts, was maintained in culture medium (80% Leibovitz's L-15 medium (Invitrogen) supplemented with 10% FBS and 100 U/ml Penicillin/[…] Streptomycin) in a humidified incubator at 24°C. […] The isolated pancreatic ductal cells were then used for cAMP stimulation in the presence of xSCT peptides and forskolin.
(In general: cAMP levels reflect the balance of adenylyl cyclase and phosphodiesterase activity.)

For experiment [2], the target named is T1, lfSCTR (P. dolloi secretin receptor) (Protopterus dolloi, UniProt F8RUA8).
T1 sequence (F8RUA8 1-463): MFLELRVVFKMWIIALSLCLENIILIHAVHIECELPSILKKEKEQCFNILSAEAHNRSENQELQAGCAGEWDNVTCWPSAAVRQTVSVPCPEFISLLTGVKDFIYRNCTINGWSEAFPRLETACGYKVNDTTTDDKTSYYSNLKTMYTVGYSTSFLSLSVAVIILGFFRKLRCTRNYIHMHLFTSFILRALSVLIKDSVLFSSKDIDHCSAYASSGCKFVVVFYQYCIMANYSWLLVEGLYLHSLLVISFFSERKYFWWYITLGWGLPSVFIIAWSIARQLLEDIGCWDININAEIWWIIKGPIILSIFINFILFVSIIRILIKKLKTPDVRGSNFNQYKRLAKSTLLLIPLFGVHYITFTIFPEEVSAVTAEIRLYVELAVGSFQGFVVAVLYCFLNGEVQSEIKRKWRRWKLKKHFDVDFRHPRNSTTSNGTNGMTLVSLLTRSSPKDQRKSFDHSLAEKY
In words: Intracellular calcium mobilization in lfSCTR-transfected CHO cells. It is filed as cell-based. As to conditions: lfSCTR-transfected CHO cells preloaded with Fluo-3; confocal imaging; at least 10 independent experiments; read-out: [Ca2+]i EC50, lfSCTR. As for the experimental part:
(§1) For confocal calcium imaging, transiently transfected cells were plated at a density of 3000 cells/well in 24-well plates (Sigma-Aldrich, St. Louis, MO). After overnight incubation, cells were pre-loaded with 5 µM Fluo-3 acetoxymethyl ester (AM) (Sigma) for 45 min at 37°C in Tyrode solution consisting of (mM): 140 NaCl, 5 KCl, 1 MgCl2, 1 CaCl2, 10 glucose and 10 HEPES at pH 7.4. Calcium transient of single receptor-transfected CHO cell was recorded with a confocal imaging system (Olympus Fluoview System version 4.2 FV300 TIEMPO) mounted on an upright Olympus microscope (IX71). Peptides at concentrations ranging from 10^−5 to 10^−12 M were added at designated time point and calcium level was traced in a real-time manner using the Fluoview software (Olympus). […] For both assays, ionomycin (10 µM) was added at the end of each experiment to test the vitality of the cells.
(§2) Differences were considered significant when P<0.05.
Background: Calcium assays in cells follow changes in intracellular calcium, usually with a dye or a luminescent sensor.

In experiment [3] the target is T1, lfSCTR (P. dolloi secretin receptor). In words: Intracellular cAMP production in lfSCTR-transfected CHO cells. In kind it is cell-based. As to conditions: for [cAMP]i stimulation of lfSCTR at 100 nM: 100 nM peptide, lfSCTR-transfected CHO-K1 cells, P<0.001; for EC50: CHO cells transiently transfected with lfSCTR, graded peptide concentrations, LANCE cAMP assay, mean ± SEM, n = 4, read-out: [cAMP]i EC50, lfSCTR.
Text: as §2

For experiment [4], the target named is T2, xOX2R (Xenopus orexin type-2 receptor) (Xenopus laevis, UniProt F8RUB9).
T2 sequence (F8RUB9 1-440): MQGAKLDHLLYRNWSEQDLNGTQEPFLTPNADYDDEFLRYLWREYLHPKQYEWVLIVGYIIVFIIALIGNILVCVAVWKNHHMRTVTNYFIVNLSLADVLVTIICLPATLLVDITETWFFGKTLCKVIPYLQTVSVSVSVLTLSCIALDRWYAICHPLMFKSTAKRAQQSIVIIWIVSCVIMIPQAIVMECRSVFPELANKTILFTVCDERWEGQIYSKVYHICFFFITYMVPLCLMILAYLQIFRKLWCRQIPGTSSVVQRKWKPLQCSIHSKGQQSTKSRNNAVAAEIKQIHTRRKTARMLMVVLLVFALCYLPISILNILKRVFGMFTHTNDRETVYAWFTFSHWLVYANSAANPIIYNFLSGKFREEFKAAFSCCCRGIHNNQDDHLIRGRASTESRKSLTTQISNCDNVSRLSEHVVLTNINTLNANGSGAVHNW
Put plainly: Intracellular calcium mobilization in xOX2R-CHO cells. It is filed as cell-based. As to conditions: data not shown. The protocol: as §1, §2

Experiment [5] relates to orexin receptor. To be noted: rat anterior hypothalamus and orexin receptor-transfected cells; cited from earlier work. The source says: (§3) Orexins A and B [17] or hypocretins 1 and 2 [18] are peptides isolated from the rat hypothalamus in 1998 by two independent research groups. Both peptides are derived from the same precursor protein and are produced by differential proteolytic cleavage. Because the C-terminal portions of both orexin peptides resemble the N-terminal of secretin, orexins were proposed to have originated from secretin or the related peptides in the secretin/glucagon superfamily, [19]. This hypothesis was then examined by studying the bindings of these peptides with their receptors in mammals and conf ...

Experiment [6] relates to human orexin type-2 receptor. To be noted: human orexin type-2 receptor-transfected CHO cells; cited from earlier work.
Text: as §3

The test system of experiment [7] is human orexin receptors. As to conditions: cited from earlier work.
Text: as §3

[8] abbreviates: lfSCTR-CHO cells, micro-molar concentrations (10^-5 and 10^-6 M).

Turning to `C=C[C@@]1(C)CC(=O)[C@]2(O)[C@@]3(C)[C@@H](O)CCC(C)(C)[C@@H]3[C@H](O)[C@H](OC(C)=O)[C@@]2(C)O1` [Forskolin], the “increase in cAMP level compared with the basal” value in experiment [1] is on record as 20 fold.

For `CC[C@H](C)[C@H](NC(=O)CNC(=O)[C@H](CC(=O)O)NC(=O)[C@H](CO)NC(=O)[C@@H](N)Cc1c[nH]cn1)C(=O)N[C@@H](Cc1ccccc1)C(=O)N[C@H](C(=O)N[C@@H](CC(=O)O)C(=O)N[C@@H](CO)C(=O)N[C@@H](Cc1ccc(O)cc1)C(=O)N[C@@H](CO)C(=O)N[C@@H](CCCNC(=N)N)C(=O)N[C@@H](Cc1ccc(O)cc1)C(=O)N[C@@H](CCCNC(=N)N)C(=O)N[C@@H](CCCCN)C(=O)N[C@@H](CCC(N)=O)C(=O)N[C@@H](CCSC)C(=O)N[C@@H](C)C(=O)N[C@H](C(=O)N[C@@H](CCCCN)C(=O)N[C@@H](CCCCN)C(=O)N[C@@H](Cc1ccc(O)cc1)C(=O)N[C@@H](CC(C)C)C(=O)N[C@@H](C)C(=O)N[C@@H](C)C(=O)N[C@H](C(=O)N[C@@H](CC(C)C)C(N)=O)C(C)C)C(C)C)[C@@H](C)O` [hPACAP27], in experiment [2], the EC50 was determined as 25.6 nM. Besides, in experiment [3], the “[cAMP]i stimulation of lfSCTR at 100 nM” value was “significantly stimulate” and the half-maximal effective concentration (EC50) came to 410 nM.

`CC(C)C[C@H](NC(=O)CNC(=O)[C@H](CCC(N)=O)NC(=O)[C@H](CC(C)C)NC(=O)[C@H](CC(C)C)NC(=O)[C@H](CCCNC(=N)N)NC(=O)[C@H](CCC(N)=O)NC(=O)[C@H](CC(C)C)NC(=O)[C@H](CCCNC(=N)N)NC(=O)[C@H](C)NC(=O)CNC(=O)[C@H](CCC(=O)O)NC(=O)[C@H](CCCNC(=N)N)NC(=O)[C@H](CC(C)C)NC(=O)[C@H](CCCNC(=N)N)NC(=O)[C@H](CO)NC(=O)[C@H](CC(C)C)NC(=O)[C@H](CCC(=O)O)NC(=O)[C@H](CO)NC(=O)[C@@H](NC(=O)[C@H](Cc1ccccc1)NC(=O)[C@@H](NC(=O)CNC(=O)[C@H](CC(=O)O)NC(=O)[C@H](CO)NC(=O)[C@@H](N)Cc1c[nH]cn1)[C@@H](C)O)[C@@H](C)O)C(=O)N[C@H](C(N)=O)C(C)C` [hSCT]: in experiment [2], the EC50 amounted to 14.7 nM. For the same molecule, in experiment [3], the “[cAMP]i stimulation of lfSCTR at 100 nM” value was “significantly stimulate” and the EC50 turned out to be 790 nM. Besides, in experiment [3] (setting [8]), the “efficacy of hSCT relative to hPACAP27 in triggering [cAMP]i” value was 5.0 fold and the “efficacy of hSCT relative to hVIP in triggering [cAMP]i” value came out at 3.6 fold.

Turning to `CC[C@H](C)[C@H](NC(=O)[C@H](CO)NC(=O)[C@H](CC(N)=O)NC(=O)[C@H](CC(C)C)NC(=O)[C@H](Cc1ccc(O)cc1)NC(=O)[C@H](CCCCN)NC(=O)[C@H](CCCCN)NC(=O)[C@@H](NC(=O)[C@H](C)NC(=O)[C@H](CCSC)NC(=O)[C@H](CCC(N)=O)NC(=O)[C@H](CCCCN)NC(=O)[C@H](CCCNC(=N)N)NC(=O)[C@H](CC(C)C)NC(=O)[C@H](CCCNC(=N)N)NC(=O)[C@@H](NC(=O)[C@H](Cc1ccc(O)cc1)NC(=O)[C@H](CC(N)=O)NC(=O)[C@H](CC(=O)O)NC(=O)[C@@H](NC(=O)[C@H](Cc1ccccc1)NC(=O)[C@@H](NC(=O)[C@H](C)NC(=O)[C@H](CC(=O)O)NC(=O)[C@H](CO)NC(=O)[C@@H](N)Cc1c[nH]cn1)C(C)C)[C@@H](C)O)[C@@H](C)O)C(C)C)C(=O)N[C@@H](CC(C)C)C(=O)N[C@@H](CC(N)=O)C(N)=O` [hVIP], the EC50 in experiment [2] is 10.3 nM. In experiment [3], the “[cAMP]i stimulation of lfSCTR at 100 nM” value is reported as “significantly stimulate” and the EC50 was determined as 160 nM.

As to “Human orexin A: human orexin A peptide (QPLPDCCRQKTCSCRLYELLHGAGNHAAGILTL; ends and bridges not checked; cysteine pairing not given here; UniProt O43612 34-66, looked up)”, the “[Ca2+]i response, xOX2R” value in experiment [4] is “able to induce calcium elevations”.

As for Human orexin B: human orexin B peptide, the “[Ca2+]i response, xOX2R” value in experiment [4] is “able to induce calcium elevations”.

Regarding “Porcine SCT: porcine secretin, literature result (HSDGTFTSELSRLRDSARLQRLLQGLV; ends and bridges not checked; UniProt P63298 33-59, looked up)”, in experiment [5], the “displacement of [125I] orexin A binding” value is on record as “found to displace”.

Take “SCT: secretin, species not stated, in cited human orexin receptor studies”: in experiment [6], the calcium elevation result was “unable” and the “displacement of [125I] orexin A” value is given as “unable to displace”. Besides, in experiment [7], the “agonistic or antagonistic effects” value was “neither agonistic nor antagonistic effects”.

B1: xSCT: 28-amino acid X. laevis secretin peptide cloned in this study, synthesized by one of the authors (protein)
chain: SSLPARSKRHVDGRFTSEFSRARGSAAIRKIINSALAGKRDIEENYQIDVPDVDNQREILKELAYNSLPELRSEEKQLTEQKAAEDLLCSAILNMLYRAPYQPLPAQSAQDYQGKNSSVEEVKHI
Regarding B1, the EC50 in experiment [2] was 273 nM; in experiment [3] it was 1820 nM.
